Reference: the RepoRT retention time repository (doi:10.1021/ac300829f)

experiment: RP, Thermo Scientific Hypersil GOLD, 150 × 2.1 mm, 1.9 µm, 0.5 mL/min, estimated dead time 0.66 min; A: water + 0.1% formic acid, pH 3; B: acetonitrile + 0.1% formic acid, pH 3; gradient (min/%B) 0/0 2/0 13/100 15.5/100 19/0; conditions: stereoisomer not certain

| LC retention time | Structure (SMILES) |
| --- | --- |
| 6.6 min | CCCCCC(=O)OC(CC(=O)[O-])C[N+](C)(C)C (stereo not drawn) [hexanoylcarnitine] |
| 1.1 min | Cc1ncc(C=O)c(CO)c1O [pyridoxal  isomer] |
| 4.7 min | NCc1[nH]cc(CCC(=O)O)c1CC(=O)O [porphobilinogen] |
| 5 min | CCCC(=O)OC(CC(=O)[O-])C[N+](C)(C)C (stereo not drawn) [butyrylcarnitine] |
| 4.9 min | O=C(O)CNC(=O)c1ccc(O)cc1 [p-hydroxyhippuric acid] |
| 5.7 min | Cc1cc2c(cc1C)N(CC(O)C(O)C(O)COP(=O)(O)O)c1[nH]c(=O)[nH]c(=O)c1N2 (stereo not drawn) [FMNH] |
| 6.7 min | Cc1ccc(C(=O)NCC(=O)O)cc1 [4-methylhippuric acid (para-methylhippuric acid)] |
| 7.3 min | CCCCCC=CC(=O)OC(CC(=O)[O-])C[N+](C)(C)C (stereo not drawn) [octenoylcarnitine] |
| 5.6 min | Cc1ncc(CO)c(C(=O)O)c1O [4-pyridoxic acid] |
| 3.6 min | CCC(=O)OC(CC(=O)[O-])C[N+](C)(C)C (stereo not drawn) [propionylcarnitine] |
| 4.4 min | CNc1nc2c(ncn2C2OC(CO)C(O)C2O)c(=O)[nH]1 (stereo not drawn) [N2-methylguanosine] |
| 1.1 min | CC(=O)NC(CC(=O)O)C(=O)O (stereo not drawn) [N-acetylaspartic acid] |
| 6.1 min | NC(=O)CCC(NC(=O)Cc1c[nH]c2ccccc12)C(=O)O (stereo not drawn) [indoleacetyl glutamine] |
| 0.9 min | O=CCC(O)C(O)CO (stereo not drawn) [deoxyribose] |

Second part, the compound before the results:

| Structure (SMILES) | LC retention time |
| --- | --- |
| CC(CCC(=O)O)C1CCC2C3C(O)CC4CC(O)CCC4(C)C3CC(O)C12C (stereo not drawn) [cholic acid] | 9.2 min |
| CCCCCCCCC(=O)OC(CC(=O)[O-])C[N+](C)(C)C (stereo not drawn) [nonanoylcarnitine] | 8.1 min |
| Nc1ncnc2c1ncn2C1OC2COP(=O)(O)OC2C1O (stereo not drawn) [cyclic AMP] | 1 min |
| [NH3+]CC(=O)N1CCCC1C(=O)[O-] (stereo not drawn) [Gly-Pro] | 1.1 min |
| C[n+]1cccc(C(=O)[O-])c1 [trigonelline] | 0.9 min |
| CCCCCCCCCC(=O)OC(CC(=O)[O-])C[N+](C)(C)C (stereo not drawn) [decanoylcarnitine] | 9 min |
| CC12CCC3C(CCC4CC(OC5OC(C(=O)O)C(O)C(O)C5O)CCC43C)C1CCC2=O (stereo not drawn) [androsterone glucuronide] | 8.6 min |
| O=C1CCNC(=O)N1 [5,6-dihydrouracil] | 1.1 min |
| [NH3+]CCCCCC(=O)[O-] [6-aminocaproic acid] | 1 min |
| CC(=O)Nc1ccc(OC2OC(C(=O)O)C(O)C(O)C2O)cc1 (stereo not drawn) [acetaminophene glucuronide] | 4.2 min |
| C[N+]1(C)CCCC1C(=O)[O-] (stereo not drawn) [stachydrine (proline betaine)] | 1 min |
| CN(CC(=O)O)C(=N)N [creatine] | 1 min |
| OCC1NCC(O)C(O)C1OC1OC(CO)C(O)C(O)C1O (stereo not drawn) [glucopyranosylmoranoline] | 4.5 min |
| CC(C)CC(N)C(=O)O (stereo not drawn) [leucine] | 1.1 min |
